pIC50: −log10 of the molar value.
Experiments:
Type in all cases: biochemical
CDK6/Cyclin D1 = CDK6/Cyclin D1 (Homo sapiens, UniProt Q00534); test: CDK6/Cyclin D1 in vitro kinase inhibition (Biological Example 1 of WO2022/111621)
Description: (§1) Biological activity for representative compounds of the present disclosure were tested according to those described in Biological Example 1 in PCT/CN2021/133429, published as WO2022/111621 on Jun. 2, 2022.

CDK4/Cyclin D1 = CDK4/Cyclin D1 (Homo sapiens, UniProt P11802); test: CDK4/Cyclin D1 in vitro kinase inhibition (Biological Example 1 of WO2022/111621)
CDK4/Cyclin D1, sequence (P11802 whole entry): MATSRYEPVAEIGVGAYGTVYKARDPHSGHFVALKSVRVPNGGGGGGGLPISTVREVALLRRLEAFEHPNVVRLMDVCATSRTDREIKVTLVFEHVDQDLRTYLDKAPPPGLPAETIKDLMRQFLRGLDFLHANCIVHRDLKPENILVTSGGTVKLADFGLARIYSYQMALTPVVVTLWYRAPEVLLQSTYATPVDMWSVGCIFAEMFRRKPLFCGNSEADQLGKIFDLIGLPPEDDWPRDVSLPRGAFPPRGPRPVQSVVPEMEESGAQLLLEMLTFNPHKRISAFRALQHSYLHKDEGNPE
CDK4/Cyclin D1, sequence (P24385 whole entry partner): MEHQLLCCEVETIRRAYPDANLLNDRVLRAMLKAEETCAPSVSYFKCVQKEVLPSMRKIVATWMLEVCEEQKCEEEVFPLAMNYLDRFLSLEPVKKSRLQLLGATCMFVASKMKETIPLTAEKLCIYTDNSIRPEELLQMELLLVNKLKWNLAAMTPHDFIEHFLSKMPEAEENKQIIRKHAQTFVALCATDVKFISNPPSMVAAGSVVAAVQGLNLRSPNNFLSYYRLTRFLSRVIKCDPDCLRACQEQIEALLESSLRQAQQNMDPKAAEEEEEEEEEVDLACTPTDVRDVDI
Description: as §1

CDK7/Cyclin H/MAT1 = CDK7/Cyclin H/MAT1 (Homo sapiens, UniProt P50613); test: CDK7/Cyclin H/MAT1 in vitro kinase inhibition (Biological Example 1 of WO2022/111621)
CDK7/Cyclin H/MAT1, sequence (P50613 whole entry): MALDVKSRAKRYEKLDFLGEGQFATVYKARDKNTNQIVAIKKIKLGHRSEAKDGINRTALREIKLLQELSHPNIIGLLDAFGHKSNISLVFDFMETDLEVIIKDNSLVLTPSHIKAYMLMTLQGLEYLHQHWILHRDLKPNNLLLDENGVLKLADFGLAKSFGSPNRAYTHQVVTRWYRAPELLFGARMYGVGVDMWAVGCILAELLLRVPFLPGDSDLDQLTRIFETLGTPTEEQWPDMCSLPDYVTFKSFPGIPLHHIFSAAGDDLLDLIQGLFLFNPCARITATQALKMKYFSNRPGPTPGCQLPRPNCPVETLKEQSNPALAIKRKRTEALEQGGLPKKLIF
CDK7/Cyclin H/MAT1, sequence (P51946 whole entry partner): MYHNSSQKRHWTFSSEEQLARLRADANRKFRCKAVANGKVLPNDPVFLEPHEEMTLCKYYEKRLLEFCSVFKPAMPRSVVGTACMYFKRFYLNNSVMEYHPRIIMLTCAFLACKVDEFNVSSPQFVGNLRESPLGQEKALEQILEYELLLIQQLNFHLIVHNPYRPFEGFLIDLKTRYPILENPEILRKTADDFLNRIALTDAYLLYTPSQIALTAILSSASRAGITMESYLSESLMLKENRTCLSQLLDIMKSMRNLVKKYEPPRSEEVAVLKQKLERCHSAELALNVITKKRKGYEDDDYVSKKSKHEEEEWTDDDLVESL
CDK7/Cyclin H/MAT1, sequence (P51948 whole entry partner): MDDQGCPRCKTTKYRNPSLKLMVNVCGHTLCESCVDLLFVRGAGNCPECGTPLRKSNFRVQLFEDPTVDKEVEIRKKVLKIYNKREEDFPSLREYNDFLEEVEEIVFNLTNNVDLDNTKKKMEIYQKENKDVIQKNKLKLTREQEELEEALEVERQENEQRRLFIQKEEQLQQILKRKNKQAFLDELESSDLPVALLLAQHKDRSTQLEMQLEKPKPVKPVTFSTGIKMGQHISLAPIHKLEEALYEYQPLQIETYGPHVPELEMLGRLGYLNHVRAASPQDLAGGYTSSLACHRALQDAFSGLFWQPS
Description: as §1

CDK9/Cyclin T1 = CDK9/Cyclin T1 (Homo sapiens, UniProt P50750); test: CDK9/Cyclin T1 in vitro kinase inhibition (Biological Example 1 of WO2022/111621)
CDK9/Cyclin T1, sequence (P50750 whole entry): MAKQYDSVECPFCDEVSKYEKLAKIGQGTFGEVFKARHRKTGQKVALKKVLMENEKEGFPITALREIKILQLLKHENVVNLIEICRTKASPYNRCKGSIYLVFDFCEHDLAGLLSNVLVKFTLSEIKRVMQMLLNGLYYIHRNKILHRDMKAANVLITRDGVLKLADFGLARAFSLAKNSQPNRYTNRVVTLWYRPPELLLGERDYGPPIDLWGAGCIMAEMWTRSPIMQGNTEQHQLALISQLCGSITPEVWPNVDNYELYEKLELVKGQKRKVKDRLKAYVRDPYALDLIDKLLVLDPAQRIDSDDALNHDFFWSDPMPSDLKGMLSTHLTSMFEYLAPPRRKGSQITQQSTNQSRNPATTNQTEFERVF
CDK9/Cyclin T1, sequence (O60563 whole entry partner): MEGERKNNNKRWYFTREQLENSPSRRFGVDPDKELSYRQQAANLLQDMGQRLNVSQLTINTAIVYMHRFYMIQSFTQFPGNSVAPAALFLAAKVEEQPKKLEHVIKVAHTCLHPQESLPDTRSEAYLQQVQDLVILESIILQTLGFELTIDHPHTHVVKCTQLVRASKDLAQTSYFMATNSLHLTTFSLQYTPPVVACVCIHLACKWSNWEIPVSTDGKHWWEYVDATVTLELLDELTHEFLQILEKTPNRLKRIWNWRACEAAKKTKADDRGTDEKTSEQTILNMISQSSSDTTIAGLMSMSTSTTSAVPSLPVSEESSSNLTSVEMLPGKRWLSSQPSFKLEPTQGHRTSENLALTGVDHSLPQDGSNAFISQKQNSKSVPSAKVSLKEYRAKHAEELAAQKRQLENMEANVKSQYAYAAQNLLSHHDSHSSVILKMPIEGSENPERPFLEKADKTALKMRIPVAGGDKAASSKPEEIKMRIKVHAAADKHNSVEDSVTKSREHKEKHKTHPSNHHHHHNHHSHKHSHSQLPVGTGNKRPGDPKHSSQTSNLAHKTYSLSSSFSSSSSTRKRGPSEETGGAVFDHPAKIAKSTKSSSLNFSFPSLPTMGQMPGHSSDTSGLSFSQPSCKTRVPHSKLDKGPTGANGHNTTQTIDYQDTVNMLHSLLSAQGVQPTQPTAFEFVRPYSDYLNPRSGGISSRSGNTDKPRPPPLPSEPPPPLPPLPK
Description: as §1

CDK6/Cyclin D1, sequence (Q00534 whole entry): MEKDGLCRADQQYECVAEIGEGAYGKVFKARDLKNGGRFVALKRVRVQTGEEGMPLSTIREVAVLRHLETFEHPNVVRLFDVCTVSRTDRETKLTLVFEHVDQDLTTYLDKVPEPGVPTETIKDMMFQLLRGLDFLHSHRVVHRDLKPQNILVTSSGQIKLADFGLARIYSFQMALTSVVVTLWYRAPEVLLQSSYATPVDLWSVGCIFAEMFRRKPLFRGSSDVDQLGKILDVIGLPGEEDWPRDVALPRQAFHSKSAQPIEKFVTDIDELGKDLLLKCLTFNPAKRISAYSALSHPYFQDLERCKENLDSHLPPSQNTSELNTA
CDK6/Cyclin D1, sequence (P24385 whole entry partner): as the sequence (P24385 whole entry partner) above

| Structure (SMILES) | pIC50 (CDK6/Cyclin D1) | pIC50 (CDK4/Cyclin D1) | pIC50 (CDK7/Cyclin H/MAT1) | pIC50 (CDK9/Cyclin T1) |
| --- | --- | --- | --- | --- |
| [2H]C([2H])([2H])NS(=O)(=O)c1ccc(Nc2ncc(C(F)(F)F)c(O[C@H]3CCOC[C@@H]3O)n2)cc1 [Compound E4] | ≤ 6.00 | ≤ 6.00 | ≤ 6.00 |  |
| NS(=O)(=O)c1ccc(Nc2ncc(C(F)(F)F)c(O[C@@H]3CCOC[C@@H]3O)n2)cc1 [Compound E7, 4-((4-(((3S,4R)-3-hydroxytetrahydro-2H-pyran-4-yl)oxy)-5-(trifluoromethyl)pyrimidin-2-yl)amino)benzenesulfonamide] |  |  | ≤ 6.00 | ≤ 6.00 |
| [2H]C([2H])([2H])NS(=O)(=O)c1ccc(Nc2ncc(C(F)(F)F)c(O[C@@H]3CCOC[C@H]3O)n2)cc1 [Compound E3] | ≤ 6.00 |  |  |  |
| [2H]C([2H])([2H])NS(=O)(=O)c1ccc(Nc2ncc(C(F)(F)F)c(O[C@H]3CCOC[C@H]3O)n2)cc1 [Compound E2] | ≤ 6.00 | ≤ 6.00 | ≤ 6.00 |  |

Source: patent US20250002480A1, “AMINOHETEROARYL KINASE INHIBITORS” (ALLORION THERAPEUTICS INC, priority 2021, published 2025)
